Data published in US12090179B2, “Methods of synergistic treatment of cancer” (priority 2016, dated 2024).

Tests used:
[1] = system: mammary fat pad tumors; assay type: in vivo, BALB-neuT mice
Description: The BALB-neuT model is a genetically engineered mouse model in which mammary tumor development is driven by expression of a constitutively activated rat homolog of human epidermal growth factor receptor 2. In this model, autochthonous tumors develop over several months and are palpable in the mammary pads of female mice around 16 weeks of age. The tumors closely resemble the aggressive Her2-driven cancer found in human patients.
BALB-neuT mice were maintained in specific pathogen free conditions and fed standard mouse chow (Harlan). Animals were cared for by the University of Minnesota's Research Animal Resources, and all animal use was approved by the University's Institutional Animal Care and Use Facility. Genotyping for the neu transgene was performed by Transnetyx on male and female pups. Breeding pairs consisted of heterozygous males and homozygous negative females. Female mice that were positive for the neu transgene were monitored for tumor development.
Three control groups received doxorubicin alone. The first control group (302) received the maximum tolerated dose (MTD) of intravenous (IV) 5 mg/kg doxorubicin on days 0, 7, and 14. The second control group (303) received IV 2.5 mg/kg (50% reduction in MTD) doxorubicin on days 0, 7 and 14.
One control group (305) of mice received SalpIL2 alone. […] Another control group (306) received Salp NG.1 alone.
For combination therapy treatment with SalpIL2, one group of mice (307) received an oral dose of 1×10^9 cfu SalpIL2 as well as IV 1.25 mg/kg doxorubicin on day 0. Two additional doses of IV 1.25 mg/kg doxorubicin were administered on days 7 and 14. For combination therapy treatment with SalpNG.1, a first group of mice (308) received an IV dose of 2×10^6 cfu SalpNG.1 as well as IV 1.25 mg/kg doxorubicin on day 0. Two additional doses of IV 1.25 mg/kg doxorubicin were administered on days 7 and 14. A second group of mice (309) received an IV dose of 2×10^6 cfu SalpNG.1 as well as IV 2.5 mg/kg doxorubicin on day 0. Two additional doses of IV 2.5 mg/kg doxorubicin were administered on days 7 and 14.

[2] = Percent weight change as measure of toxicity in BALB-neuT mice; assay type: in vivo
Method: Female BALB-neu-T mice spontaneously developed palpable mammary fat pad tumors around 16 weeks of age (approximately 50-60 mm^3). At this time (day 0), the mice typically had 1-3 palpable tumors. For each experiment, individual tumors were measured by caliper, and their volume was calculated. Individual tumor volumes were calculated as spheroid (L×W^2×0.52) and combined to give a total tumor burden measurement for each mouse. Tumor burden data was gathered weekly from day 0 to day 35. Additionally, percent weight change data was gathered weekly for each mouse from day 0 to day 35. The percent weight change was calculated based on the baseline weight of each mouse.
Various embodiments of method 200, described above with respect to FIG. 2, were used to treat tumors in the BALB-neuT model using combinations of attenuated S. typhimurium and the chemotherapy agent doxorubicin. A prescribed amount per cfu of the appropriate S. typhimurium strain (SalpIL2 or SalpNG.1) was administered via intravenous injection or gavage orally in 100 μL of PBS. The doxorubicin was administered intravenously via tail vein. Additionally, using the same methods of administration, a number of control groups received PBS alone, doxorubicin alone, SalpIL2 alone, or SalpNG.1 alone.
FIG. 6 is a line graph of percent weight change versus days post-treatment in mice treated with combinations of attenuated S. typhimurium and doxorubicin compared to control groups. Weight change in mice is an accurate measure of the degree of toxicity of a chemotherapy agent. […] While the control group that received PBS (301) saw a greater than 25% increase in weight by day 30, the mice in that group died or were moribund and euthanized due to tumor growth.

[3] = doxorubicin alone IV 1.25 mg/kg (25% of MTD) on days 0, 7, 14, group 304
[4] = doxorubicin alone IV 5 mg/kg (MTD) on days 0, 7, 14, group 302
[5] = doxorubicin alone IV 1.25 mg/kg on days 0, 7, 14, group 304

Question: With `COc1cccc2c1C(=O)c1c(O)c3c(c(O)c1C2=O)C[C@@](O)(C(=O)CO)C[C@@H]3O[C@H]1C[C@H](N)[C@H](O)[C@H](C)O1` [doxorubicin] as the compound, how does the “tumor burden relative to the MTD doxorubicin group (302) by day 21” value [1, 3] read?
Answer: The value was “almost double”.

Question: What about the “tumor burden relative to the MTD doxorubicin group (302) by day 35” value [1, 3] of the same compound?
Answer: Its value is about 5 times.

Question: And the “tumor burden compared with groups 302 (MTD) and 304 (1.25 mg/kg)” value ([1]; doxorubicin alone IV 2.5 mg/kg (50% of MTD) on days 0, 7, 14, group 303)?
Answer: The value was “in between”.

Question: What about the “tumor burden at day 35” value [1, 4] of the same compound?
Answer: The value was “around 100 mm^3”.

Question: What about the “tumor burden compared with the other groups” value [1, 4] of the same compound?
Answer: The value was “lowest”.

Question: And the “toxicity judged from weight change” value [2, 5]?
Answer: The value was “non-toxic”.

Question: And the “weight change by day 14” value [2, 5]?
Answer: The value was “did not show any weight loss”.

Question: And the “weight gain by day 35” value [2, 5]?
Answer: Its value is under 10%.

Question: What about the “toxicity judged from weight change” value [2, 4] of the same compound?
Answer: The value was “significant toxicity”.

Question: And the “weight loss by day 14” value [2, 4]?
Answer: The value was “greater than 20%”.

Question: What about the “weight loss by day 35” value [2, 4] of the same compound?
Answer: Its value is about 10%.
